Literature values, collected in patent publication US20210259278A1, “CHEWING GUM CONTAINING VITAMIN C” (priority 2018, published 2021).

System: nausea in humans

O=C1O[C@H]([C@@H](O)CO)C(O)=C1O [vitamin C, L-(+)-ascorbic acid]
treatment of nausea (administration of vitamin C, for example in connection with seasickness): found to be effective
prevention of the occurrence of nausea in all test subjects (vitamin C alone): could not reliably prevent the occurrence of nausea in all test subjects
